Experimental findings from US9884832B2 (priority 2011, dated 2018) are described below.

In assay [1] the target is AM2 V27A (valine→alanine mutation at residue 27 in the M2 protein) (Influenza A virus, UniProt P0DOF5, V27A). In kind it is cell-based, influenza virus A/Udorn/72.
Assay [2] has as its target AM2 S31N (serine→asparagine mutation at residue 31 in the M2 protein) (Influenza A virus, UniProt P0DOF5, S31N). In kind it is cell-based, influenza virus A/Udorn/72.

Read-outs that look alike come from different tables or passages of the source.

With `COc1ccc(-c2ccc(CNC34CC5CC(CC(C5)C3)C4)s2)cc1` [Example 113a, N-((5-(4-methoxyphenyl)thiophen-2-yl)methyl)adamantan-1-amine], the “V27A OOcyte Inhibition at 100 uM (%)” value in assay [1] was “B (key: (A)=31-95%; (B)=0-30%)”. The “S31N OOcyte Inhibition at 100 uM (%)” value in assay [2] is “A (key: (A)=31-95%; (B)=0-30%)”.
For the compound `CC1(C)C2CCC(CNCc3ccc(O)cc3O)C1C2` (centres unmarked) [Example 114, 4-{[(6,6-Dimethyl-bicyclo[3.1.1]hept-2-ylmethyl)-amino]methyl}-benzene-1,3-diol], the “V27A OOcyte Inhibition at 100 uM (%)” value in assay [1] (pH 5.5) is on record as “B (key: (A)=31-95%; (B)=0-30%)”. Further, the “S31N OOcyte Inhibition at 100 uM (%)” value in assay [2] (pH 5.5) is given as “B (key: (A)=31-95%; (B)=0-30%)”.
On to `Oc1ccc(CN2CCC3(CCCCC3)CC2)c(O)c1` [Example 115, 4-(3-Aza-spiro[5.5]undec-3-ylmethyl)-benzene-1,3-diol], for which the “V27A OOcyte Inhibition at 100 uM (%)” value in assay [1] (pH 5.5) is listed as “B (key: (A)=31-95%; (B)=0-30%)”. In assay [2] (pH 5.5), the “S31N OOcyte Inhibition at 100 uM (%)” value was “B (key: (A)=31-95%; (B)=0-30%)”.
In the case of `c1ccc(-c2nnc(CNC34CC5CC(CC(C5)C3)C4)o2)cc1` [Example 115a, N-((5-phenyl-1,3,4-oxadiazol-2-yl)methyl)adamantan-1-amine], the “V27A OOcyte Inhibition at 100 uM (%)” value in assay [1] is on record as “B (key: (A)=31-95%; (B)=0-30%)”. Further, the “S31N OOcyte Inhibition at 100 uM (%)” value in assay [2] is “A (key: (A)=31-95%; (B)=0-30%)”.
Regarding `Oc1ccc(CN2CC3CC4CC(C3)CC2C4)c(O)c1` [Example 116, 4-(4-Aza-tricyclo[4.3.1.13,8]undec-4-ylmethyl)-benzene-1,3-diol], in assay [1] (pH 5.5), the “V27A OOcyte Inhibition at 100 uM (%)” value is on record as “A (key: (A)=31-95%; (B)=0-30%)”. For the same compound, the “S31N OOcyte Inhibition at 100 uM (%)” value in assay [2] (pH 5.5) is reported as “B (key: (A)=31-95%; (B)=0-30%)”.
Consider `c1ccc(-c2cc(CNC34CC5CC(CC(C5)C3)C4)no2)cc1` [Example 116a, N-((5-phenylisoxazol-3-yl)methyl)adamantan-1-amine], for which the “V27A OOcyte Inhibition at 100 uM (%)” value in assay [1] is “B (key: (A)=31-95%; (B)=0-30%)”. In assay [2], the “S31N OOcyte Inhibition at 100 uM (%)” value was “A (key: (A)=31-95%; (B)=0-30%)”.
`COc1ccc(-c2nnc(CNC34CC5CC(CC(C5)C3)C4)o2)cc1` [Example 127a, N-((5-(4-methoxyphenyl)-1,3,4-oxadiazol-2-yl)methyl)adamantan-1-amine]: in assay [1], the “V27A OOcyte Inhibition at 100 uM (%)” value is reported as “B (key: (A)=31-95%; (B)=0-30%)”. The “S31N OOcyte Inhibition at 100 uM (%)” value in assay [2] is on record as “A (key: (A)=31-95%; (B)=0-30%)”.
Regarding `c1coc(-c2ccc(CNC34CC5CC(CC(C5)C3)C4)s2)c1` [Example 136a, N-((5-(Furan-2-yl)thiophen-2-yl)methyl)adamantan-1-amine], the “V27A OOcyte Inhibition at 100 uM (%)” value in assay [1] is “B (key: (A)=31-95%; (B)=0-30%)”. Further, in assay [2], the “S31N OOcyte Inhibition at 100 uM (%)” value was “A (key: (A)=31-95%; (B)=0-30%)”.
The corresponding values for `c1cc(-c2ccc(CNC34CC5CC(CC(C5)C3)C4)s2)co1` [Example 137a, N-((5-(Furan-3-yl)thiophen-2-yl)methyl)adamantan-1-amine] are “B (key: (A)=31-95%; (B)=0-30%)” and “A (key: (A)=31-95%; (B)=0-30%)”.
As for `c1csc(-c2csc(CNC34CC5CC(CC(C5)C3)C4)c2)c1` [Example 140a, Adamantan-1-yl-[2,3′]bithiophenyl-5′-ylmethyl-amine], the “V27A OOcyte Inhibition at 100 uM (%)” value in assay [1] is on record as “A (key: (A)=31-95%; (B)=0-30%)”. For the same compound, in assay [2], the “S31N OOcyte Inhibition at 100 uM (%)” value is “A (key: (A)=31-95%; (B)=0-30%)”.
Take `Cc1ccc(-c2ccc(CNC34CC5CC(CC(C5)C3)C4)s2)s1` [Example 141a, N-((5′-methyl-[2,2′-bithiophen]-5-yl)methyl)adamantan-1-amine]: the “V27A OOcyte Inhibition at 100 uM (%)” value in assay [1] is “B (key: (A)=31-95%; (B)=0-30%)”. Further, the “S31N OOcyte Inhibition at 100 uM (%)” value in assay [2] is “A (key: (A)=31-95%; (B)=0-30%)”.
The corresponding values for `c1csc(-c2cc(CNC34CC5CC(CC(C5)C3)C4)no2)c1` [Example 142a, N-((5-(thiophen-2-yl)isoxazol-3-yl)methyl)adamantan-1-amine] are “B (key: (A)=31-95%; (B)=0-30%)” and “A (key: (A)=31-95%; (B)=0-30%)”.
The corresponding values for `c1cc(-c2nc(CNC34CC5CC(CC(C5)C3)C4)no2)cs1` [Example 143a, N-((5-(thiophen-3-yl)-1,2,4-oxadiazol-3-yl)methyl)adamantan-1-amine] are “B (key: (A)=31-95%; (B)=0-30%)” and “A (key: (A)=31-95%; (B)=0-30%)”.
The corresponding values for `c1csc(-c2ncc(CNC34CC5CC(CC(C5)C3)C4)s2)c1` [Example 144a, N-((2-(thiophen-2-yl)thiazol-5-yl)methyl)adamantan-1-amine] are “B (key: (A)=31-95%; (B)=0-30%)” and “A (key: (A)=31-95%; (B)=0-30%)”.
With `c1cc(-c2csc(CNC34CC5CC(CC(C5)C3)C4)c2)cs1` [Example 152a, N-([3,3′-bithiophen]-5-ylmethyl)adamantan-1-amine], in assay [1], the “V27A OOcyte Inhibition at 100 uM (%)” value was “A (key: (A)=31-95%; (B)=0-30%)”. Also, the “S31N OOcyte Inhibition at 100 uM (%)” value in assay [2] is reported as “B (key: (A)=31-95%; (B)=0-30%)”.
Regarding `c1coc(-c2cc(CNC34CC5CC(CC(C5)C3)C4)no2)c1` [Example 153a, N-((5-(furan-2-yl)isoxazol-3-yl)methyl)adamantan-1-amine], the “V27A OOcyte Inhibition at 100 uM (%)” value in assay [1] is reported as “B (key: (A)=31-95%; (B)=0-30%)”. Moreover, the “S31N OOcyte Inhibition at 100 uM (%)” value in assay [2] is on record as “A (key: (A)=31-95%; (B)=0-30%)”.
The corresponding values for `Cc1ncc(-c2ccc(CNC34CC5CC(CC(C5)C3)C4)s2)s1` [Example 154a, N-((5-(2-methylthiazol-5-yl)thiophen-2-yl)methyl)adamantan-1-amine] are “A (key: (A)=31-95%; (B)=0-30%)” and “A (key: (A)=31-95%; (B)=0-30%)”.
Regarding `Cn1cc(C(F)(F)F)c(-c2ccc(CNC34CC5CC(CC(C5)C3)C4)s2)n1` [Example 155a, N-((5-(1-methyl-4-(trifluoromethyl)-1H-pyrazol-3-yl)thiophen-2-yl)methyl)adamantan-1-amine], the “V27A OOcyte Inhibition at 100 uM (%)” value in assay [1] is listed as “B (key: (A)=31-95%; (B)=0-30%)”. In assay [2], the “S31N OOcyte Inhibition at 100 uM (%)” value is listed as “B (key: (A)=31-95%; (B)=0-30%)”.
With `Cc1nc(-c2ccc(CNC34CC5CC(CC(C5)C3)C4)s2)cs1` [Example 156a, N-((5-(2-methylthiazol-4-yl)thiophen-2-yl)methyl)adamantan-1-amine], in assay [1], the “V27A OOcyte Inhibition at 100 uM (%)” value was “A (key: (A)=31-95%; (B)=0-30%)”. For the same compound, the “S31N OOcyte Inhibition at 100 uM (%)” value in assay [2] is on record as “A (key: (A)=31-95%; (B)=0-30%)”.
As to `c1csc(-c2ccc(-c3ccc(CNC45CC6CC(CC(C6)C4)C5)s3)s2)c1` [Example 157a, N-([2,2′:5′,2″-terthiophen]-5-ylmethyl)adamantan-1-amine], the “V27A OOcyte Inhibition at 100 uM (%)” value in assay [1] was “B (key: (A)=31-95%; (B)=0-30%)”. The “S31N OOcyte Inhibition at 100 uM (%)” value in assay [2] was “B (key: (A)=31-95%; (B)=0-30%)”.
With `c1cc(-c2ccc(CNC34CC5CC(CC(C5)C3)C4)s2)[nH]n1` [Example 158a, N-((5-(1H-pyrazol-5-yl)thiophen-2-yl)methyl)adamantan-1-amine], in assay [1], the “V27A OOcyte Inhibition at 100 uM (%)” value is “A (key: (A)=31-95%; (B)=0-30%)”. The “S31N OOcyte Inhibition at 100 uM (%)” value in assay [2] was “A (key: (A)=31-95%; (B)=0-30%)”.
For `Brc1ccc(-c2ccc(CNC34CC5CC(CC(C5)C3)C4)s2)s1` [Example 159a, N-((5′-bromo-[2,2′-bithiophen]-5-yl)methyl)adamantan-1-amine], in assay [1], the “V27A OOcyte Inhibition at 100 uM (%)” value is reported as “B (key: (A)=31-95%; (B)=0-30%)”. Besides, the “S31N OOcyte Inhibition at 100 uM (%)” value in assay [2] was “A (key: (A)=31-95%; (B)=0-30%)”.
